What was measured:
Assay type in all cases: cell-based, BALB/c mouse
[1] = tested on: iLRP-specific T cell clone H3 (Th1); experiment: BUdR incorporation ELISA proliferation assay, Th1 clone H3; conditions: for BudR Incorporation (A450), T cell clone H3 (Th1): Table 8, overlapping 12-mers of iLRP 136-166, 100 U/ml IL-2; for Response of Th1 clone H3 (in words): text on Table 8
Protocol: (§1) The epitopes recognized by 15 iLRP-reactive T cell clones derived from either naive BALB/c mice, BALB/c mice bearing MCA1315 fibrosarcoma tumors, or from BALB/c mice immunized with either 1 or 10 μg of recombinant murine iLRP were determined by testing the proliferation of those clones to overlapping peptides spanning the region of the iLRP molecule recognized by each clone in the presence of IL-2, as a growth factor for T cells and irradiated, T cell-depleted, syngeneic spleen cells as antigen-presenting cells. Proliferation was measured through ELISA determination of 5-bromodeoxyuridine incorporation during culture.
(§2) More specifically, the epitope-specificity of the iLRP-specific Th1, Tc, and Ts clones was determined using a modification of the 5′-bromodeoxyuridine (BudR) incorporation ELISA technique described in Rohrer, J. W., A. L. Barsoum, D. L. Dyess, J. A. Tucker, and J. H. Coggin, Jr. 1999. Human breast carcinoma patients develop clonable oncofetal antigen-specific effector and regulatory T lymphocytes. J. Immunol. 162:6880, using the Biotrak BUdR incorporation assay (Amersham, Arlington Heights, Ill.). Briefly, at the time of restimulation of the clones, a portion of the cloned T cells were assayed for proliferation to antigen-presenting cells (APC) and various iLRP peptides. The assay was performed with 10,000 viable cloned T cells/well plus […] irradiated syngeneic spleen cells (APC) plus 100 ng/well of intact iLRP/OFA protein or the various truncated iLRP/OFA proteins or the various iLRP/OFA peptides in Iscove's modified Dulbecco's medium (IMDM) containing 2 mM L-glutamine, 100 U/ml of penicillin G, 100 μg of streptomycin sulfate, and 10% fetal calf serum. The cells were cultured for a total of 48 hours. After 24 hours of culture 5′-bromodeoxyuridine was added to a final concentration of 10 μM/well. The cells were cultured for another 24 hours. At the end of the last 24 hours of incubation, the plates were centrifuged at 300×g for 10 min, and the labelling medium removed. The cells were then dried at 60° C. for 1 hour. The cells were fixed with an ethanol fixative provided in the Biotrak kit for 30 min at room temperature, fixative was removed, and the wells were coated with blocking buffer (1% protein in 50 mM Tris-HCl, 150 mM NaCl, pH 7.4) and incubated for 30 min at room temperature. The blocking buffer was removed, 100 μl of 1:100 diluted peroxidase-labelled anti-BUdR antibody was added to each well and the plates were incubated for 90 min at room temperature. The antibody solution was removed, and the wells washed three times with 300 μl/well of wash buffer. 200 μl of 3,3′, 5,5′-tetramethylbenzidine in […] DMSO was added to each well and the plate was covered and incubated at room temperature while oscillating gently for 5-30 min. When the required color density was reached, the reaction was stopped by adding 25 μl of 1M sulfuric acid to each well and the plate read on a microELISA reader at 450 nm.
(§3) Each time the assay was done, clones were stimulated by APC and intact iLRP/OFA as a positive control. Cloned T cells were also cultured in the presence of only APC in IMDM or in the presence of APC and an iLRP/OFA peptide or truncated iLRP/OFA known not to stimulate the clones being tested. These served as negative controls. In wells where BUdR was incorporated (the iLRP/OFA stimulates proliferation of the T cells), the A450 was at least 10-fold and often approximately 50-fold higher than the negative controls. Because the Ts cells always presented with apparently low affinity T cell antigen receptors, their BUdR incorporation gave A450 values about 10 times higher than the negative controls (e.g., about 0.2 vs. 0.02), but about 5 times lower than the Th1 or Tc clones (e.g., usually about 0.9). […]

[2] = tested on: iLRP-specific T cell clone L5 (Tc); experiment: BUdR incorporation ELISA proliferation assay, Tc clone L5; conditions: for BudR Incorporation (A450), T cell clone L5 (Tc): Table 8, overlapping 12-mers of iLRP 136-166, 100 U/ml IL-2; for Proliferative response of Tc clone L5 (in words): text on Table 8
Protocol: as §1, §2, §3

[3] = tested on: iLRP-specific Th1, Tc, and Ts clones; experiment: BUdR incorporation proliferation assay, comparison across iLRP-specific T cell clone types; conditions: Table 14; type of T cell clone reactive with the 12-mer
Protocol: as §1, §2
(§4) Each time the assay was done, clones were stimulated by APC and intact iLRP/OFA as a positive control. Cloned T cells were also cultured in the presence of only APC in IMDM or in the presence of APC and an iLRP/OFA peptide or truncated iLRP/OFA known not to stimulate the clones being tested. These served as negative controls. In wells where BUdR was incorporated (the iLRP/OFA stimulates proliferation of the T cells), the A450 was at least 10-fold and often approximately 50-fold higher than the negative controls. Because the Ts cells always presented with apparently low affinity T cell antigen receptors, their BUdR incorporation gave A450 values about 10 times higher than the negative controls (e.g., about 0.2 vs. 0.02), but about 5 times lower than the Th1 or Tc clones (e.g., usually about 0.9).
Determination of the portion of the truncated iLRP/OFA protein or peptide reacted to by a given clone was done by analysis of the proliferation pattern to the various truncated proteins or peptides. […]

[4] = tested on: iLRP-specific T cell clone H2 (Ts); experiment: BUdR incorporation ELISA proliferation assay, Ts clone H2; conditions: for BudR Incorporation (A450), T cell clone H2 (Ts): Table 8, overlapping 12-mers of iLRP 136-166, 100 U/ml IL-2; for Proliferation of Ts clone H2 (in words): text on Table 8
Protocol: as §1, §2, §3

[5] = tested on: iLRP-specific T cell clone L4 (Tc); experiment: BUdR incorporation ELISA proliferation assay, Tc clone L4; conditions: for BudR Incorporation (A450), T cell clone L4 (Tc): Table 8, overlapping 12-mers of iLRP 136-166, 100 U/ml IL-2; for Proliferation of Tc clone L4 (in words): text on Table 8
Protocol: as §1, §2, §3

[6] = tested on: iLRP-specific T cell clone H4 (Ts); experiment: BUdR incorporation ELISA proliferation assay, Ts clone H4; conditions: for BudR Incorporation (A450), T cell clone H4 (Ts): Table 8, overlapping 12-mers of iLRP 136-166, 100 U/ml IL-2; for Proliferation of Ts clone H4 (in words): text on Table 8
Protocol: as §1, §2, §3

[7] = tested on: CD8 iLRP-specific T cell clone L6 (Tc); experiment: BUdR incorporation ELISA proliferation assay, Tc clone L6; conditions: Table 5
Protocol: as §1
More specifically, the epitope-specificity of the iLRP-specific Th1, Tc, and Ts clones was determined using a modification of the 5′-bromodeoxyuridine (BudR) incorporation ELISA technique described in Rohrer, J. W., A. L. Barsoum, D. L. Dyess, J. A. Tucker, and J. H. Coggin, Jr. 1999. Human breast carcinoma patients develop clonable oncofetal antigen-specific effector and regulatory T lymphocytes. J. Immunol. 162:6880, using the Biotrak BUdR incorporation assay (Amersham, Arlington Heights, Ill.). Briefly, at the time of restimulation of the clones, a portion of the cloned T cells were assayed for proliferation to antigen-presenting cells (APC) and various iLRP peptides. The assay was performed with 10,000 viable cloned T cells/well plus […] irradiated syngeneic spleen cells (APC) plus 100 ng/well of intact iLRP/OFA protein or the various truncated iLRP/OFA proteins or the various iLRP/OFA peptides in Iscove's modified Dulbecco's medium (IMDM) containing 2 mM L-glutamine, 100 U/ml of penicillin G, 100 μg of streptomycin sulfate, and 10% fetal calf serum. The cells were cultured for a total of 48 hours. After 24 hours of culture 5′-bromodeoxyuridine was added to a final concentration of 10 μM/well. The cells were cultured for another 24 hours. […] When the required color density was reached, the reaction was stopped by adding 25 μl of 1M sulfuric acid to each well and the plate read on a microELISA reader at 450 nm. […]

[8] = tested on: iLRP-specific T cell clone L1 (CD8 Ts); experiment: BUdR incorporation ELISA proliferation assay, Ts clone L1; conditions: Table 3; for BUdR Incorporation (A450) of iLRP-specific T cell clone L1 cells, Expt. 1 / BUdR Incorporation (A450) of iLRP-specific T cell clone L1 cells, Expt. 2: 100 ng/well stimulant with irradiated syngeneic spleen cells (APC), 48 h culture
Protocol: as §1, §2, §4
Overlapping 12mer peptides of the first 25 amino acids of murine iLRP were produced. Thus, peptides 1-4 corresponded to amino acid residues 1-12, 5-16, 9-20 and 17-28 of murine iLRP. […]

CD8 T cell clone H5 (Ts) = experiment: BUdR incorporation ELISA proliferation assay, Ts clone H5; conditions: Table 4
Protocol: as §1
More specifically, the epitope-specificity of the iLRP-specific Th1, Tc, and Ts clones was determined using a modification of the 5′-bromodeoxyuridine (BudR) incorporation ELISA technique described in Rohrer, J. W., A. L. Barsoum, D. L. Dyess, J. A. Tucker, and J. H. Coggin, Jr. 1999. Human breast carcinoma patients develop clonable oncofetal antigen-specific effector and regulatory T lymphocytes. J. Immunol. 162:6880, using the Biotrak BUdR incorporation assay (Amersham, Arlington Heights, Ill.). […] When the required color density was reached, the reaction was stopped by adding 25 μl of 1M sulfuric acid to each well and the plate read on a microELISA reader at 450 nm. […]

[9] = Table 7, stimulated by a.a.'s 136-166 sequence or controls

Substance	BudR Incorporation (A450), T cell clone H3 (Th1) [1]	BudR Incorporation (A450), T cell clone L5 (Tc) [2]	Reactive T cell clones [3]	BudR Incorporation (A450), T cell clone H2 (Ts) [4]	BudR Incorporation (A450), T cell clone L4 (Tc) [5]	BudR Incorporation (A450), T cell clone H4 (Ts) [6]	BUdR Incorporation (A450) of iLRP-specific T cell clone L1 cells, Expt. 1 [8]	BUdR Incorporation (A450) of iLRP-specific T cell clone L1 cells, Expt. 2 [8]	further results
CNTDSPLRYVDI [Peptide 31-4]	.81 A450	.89 A450	Tc & TH1	.016 A450	.023 A450	.016 A450			Response of Th1 clone H3 (in words) [1]: slightly lower response; Proliferative response of Tc clone L5 (in words) [2]: equal proliferative response
EASYVNLPTIAL [Peptide 31-1]	.016 A450	.017 A450	Ts	.23 A450	.015 A450	.22 A450			Proliferation of Ts clone H2 (in words) [4]: proliferated equally; Proliferation of Ts clone H4 (in words) [6]: proliferated equally
ISSRNTGQRAVL [P14 (aa 77-88)]									Proliferation of clone L6 (in words) [7]: proliferated equally well
KLLAAGTHLGGT [Peptide 4]							.28 A450	.27 A450	Proliferation of clone L1 (in words) [8]: proliferates to a peptide contained almost entirely in peptide 4
LDVLQMKEEDVL [Peptide 2]							.017 A450	.019 A450	
MSGALDVLQMKE [Peptide 1]							.018 A450	.020 A450	
NTGQRAVLKFAA [P15 (aa 81-92)]									Proliferation of clone L6 (in words) [7]: proliferated equally well
P10 (aa 61-72): iLRP 12-mer peptide, amino acids 61-72 (AARAIVAIENPA)									BUdR incorporation, CD8 iLRP-specific T cell clone L6 (Tc) ([7]; 100 ng/well stimulant with APC, two values given): .017, .017 A450
QMEQYIYKRKSD [P3 (aa 33-44)]									Proliferation of clone H5 (in words) (CD8 T cell clone H5 (Ts)): proliferated to iLRP peptides 3 and 4 equally well
QMKEEDVLKLLAA [Peptide 3]							.09 A450	.07 A450	Proliferation of clone L1 (in words) [8]: does react somewhat
SPLRYVDIAIPC [Peptide 31-5]	.95 A450	.024 A450	Tc & TH1	.016 A450	.91 A450	.016 A450			Response of Th1 clone H3 (in words) [1]: strongest response; Proliferation of Tc clone L4 (in words) [5]: proliferated to peptides 31-5 and 31-6 equally
TIALCNTDSPLR [Peptide 31-3]	.016 A450	.90 A450	Tc	.015 A450	.016 A450	.017 A450			Proliferative response of Tc clone L5 (in words) [2]: equal proliferative response
VNLPTIALCNTD [Peptide 31-2]	.015 A450	.016 A450	Ts	.22 A450	.018 A450	.24 A450			Proliferation of Ts clone H2 (in words) [4]: proliferated equally; Proliferation of Ts clone H4 (in words) [6]: proliferated equally
YIYKRKSDGTYI [P4 (aa 37-48)]									Proliferation of clone H5 (in words) (CD8 T cell clone H5 (Ts)): proliferated to iLRP peptides 3 and 4 equally well
YVDIAIPCNNKG [Peptide 31-6]	.03 A450	.015 A450	Tc	.015 A450	.90 A450	.016 A450			Proliferation of Tc clone L4 (in words) [5]: proliferated to peptides 31-5 and 31-6 equally
iLRP truncated protein 13: truncated iLRP protein, a.a.'s 242-295; negative control	.015 A450	.016 A450		.017 A450	.017 A450	.018 A450	.016 A450	.014 A450	BUdR incorporation (A450), clone H3 (Th1) [1, 9]: .017 A450; BUdR incorporation (A450), clone L5 (Tc) [2, 9]: .015 A450; BUdR incorporation (A450), clone H2 (Ts) [4, 9]: .015 A450; BUdR incorporation (A450), clone L4 (Tc) [5, 9]: .017 A450; BUdR incorporation (A450), clone H4 (Ts) [6, 9]: .016 A450

— patent publication US8709405B2, “Cancer vaccines containing epitopes of oncofetal antigen” (South Alabama Medical Science Foundation, priority 2002, dated 2014)
